According to publication PMC11882969 (Nature Communications, 2025):
Several values for one entry are separate records, joined by “and”; a condition that tells them apart may be missing. Equal entries are not always repeated.

What was measured:
[1] = target: panel of 320 non-olfactory GPCRs (Homo sapiens, UniProt O00270); type: cell-based
[2] = target: panel of 320 non-olfactory GPCRs (Homo sapiens, UniProt O43193); type: cell-based
[3] = target: panel of 320 non-olfactory GPCRs (Homo sapiens, UniProt O75388); type: cell-based
[4] = target: panel of 320 non-olfactory GPCRs (Homo sapiens, UniProt O95838); type: cell-based
[5] = target: panel of 320 non-olfactory GPCRs (Homo sapiens, UniProt P08912); type: cell-based
[6] = target: panel of 320 non-olfactory GPCRs (Homo sapiens, UniProt P13945); type: cell-based
[7] = target: panel of 320 non-olfactory GPCRs (Homo sapiens, UniProt P25101); type: cell-based
[8] = target: panel of 320 non-olfactory GPCRs (Homo sapiens, UniProt P25103); type: cell-based
[9] = target: panel of 320 non-olfactory GPCRs (Homo sapiens, UniProt P28335, I156V/I160V/N158G); type: cell-based
[10] = target: panel of 320 non-olfactory GPCRs (Homo sapiens, UniProt P28566); type: cell-based
[11] = target: panel of 320 non-olfactory GPCRs (Homo sapiens, UniProt P30411); type: cell-based
[12] = target: panel of 320 non-olfactory GPCRs (Homo sapiens, UniProt P30989); type: cell-based
Chain of panel of 320 non-olfactory GPCRs (Homo sapiens, UniProt P30989) (P30989 whole entry): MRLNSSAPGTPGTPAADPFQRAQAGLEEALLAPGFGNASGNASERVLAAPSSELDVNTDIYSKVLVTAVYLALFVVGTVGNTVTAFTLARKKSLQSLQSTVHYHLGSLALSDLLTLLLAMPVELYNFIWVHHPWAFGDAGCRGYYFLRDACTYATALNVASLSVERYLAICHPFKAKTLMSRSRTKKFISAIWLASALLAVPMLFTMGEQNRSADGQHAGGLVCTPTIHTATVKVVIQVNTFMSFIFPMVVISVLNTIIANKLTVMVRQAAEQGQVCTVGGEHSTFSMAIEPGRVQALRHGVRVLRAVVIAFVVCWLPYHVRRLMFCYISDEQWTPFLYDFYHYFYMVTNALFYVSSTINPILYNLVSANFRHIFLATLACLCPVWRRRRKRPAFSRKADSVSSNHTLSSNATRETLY

[13] = target: panel of 320 non-olfactory GPCRs (Homo sapiens, UniProt P32245); type: cell-based
[14] = target: panel of 320 non-olfactory GPCRs (Homo sapiens, UniProt P34972); type: cell-based
[15] = target: panel of 320 non-olfactory GPCRs (Homo sapiens, UniProt P41597); type: cell-based
[16] = target: panel of 320 non-olfactory GPCRs (Homo sapiens, UniProt P46092); type: cell-based
[17] = target: panel of 320 non-olfactory GPCRs (Homo sapiens, UniProt P46095); type: cell-based
Chain of panel of 320 non-olfactory GPCRs (Homo sapiens, UniProt P46095) (P46095 whole entry): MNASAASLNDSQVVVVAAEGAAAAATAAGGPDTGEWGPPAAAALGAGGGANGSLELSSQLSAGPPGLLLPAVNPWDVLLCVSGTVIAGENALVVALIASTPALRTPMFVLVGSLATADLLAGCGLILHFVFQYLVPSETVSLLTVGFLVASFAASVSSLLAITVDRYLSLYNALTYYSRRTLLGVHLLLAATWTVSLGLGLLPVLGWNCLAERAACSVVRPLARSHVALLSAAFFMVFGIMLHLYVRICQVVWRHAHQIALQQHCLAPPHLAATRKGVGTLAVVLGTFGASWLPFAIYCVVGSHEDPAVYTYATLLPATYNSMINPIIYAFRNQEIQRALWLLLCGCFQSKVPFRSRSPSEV

[18] = target: panel of 320 non-olfactory GPCRs (Homo sapiens, UniProt P51677); type: cell-based
[19] = target: panel of 320 non-olfactory GPCRs (Homo sapiens, UniProt Q01726); type: cell-based
[20] = target: panel of 320 non-olfactory GPCRs (Homo sapiens, UniProt Q15761); type: cell-based
Chain of panel of 320 non-olfactory GPCRs (Homo sapiens, UniProt Q15761) (Q15761 whole entry): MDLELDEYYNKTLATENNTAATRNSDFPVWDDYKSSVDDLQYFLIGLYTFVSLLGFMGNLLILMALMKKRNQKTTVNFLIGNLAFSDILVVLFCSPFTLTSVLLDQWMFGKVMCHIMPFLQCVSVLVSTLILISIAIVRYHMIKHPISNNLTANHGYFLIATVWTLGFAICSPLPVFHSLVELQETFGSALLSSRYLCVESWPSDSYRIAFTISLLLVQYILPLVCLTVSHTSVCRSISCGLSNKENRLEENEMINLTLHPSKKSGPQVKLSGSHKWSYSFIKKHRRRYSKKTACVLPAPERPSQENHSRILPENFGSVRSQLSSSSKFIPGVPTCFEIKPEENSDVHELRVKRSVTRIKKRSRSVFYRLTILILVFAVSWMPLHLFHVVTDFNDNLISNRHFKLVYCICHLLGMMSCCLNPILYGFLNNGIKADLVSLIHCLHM

[21] = target: panel of 320 non-olfactory GPCRs (Homo sapiens, UniProt Q16538); type: cell-based
[22] = target: panel of 320 non-olfactory GPCRs (Homo sapiens, UniProt Q5UAW9); type: cell-based
[23] = target: panel of 320 non-olfactory GPCRs (Homo sapiens, UniProt Q86SQ6); type: cell-based
[24] = target: panel of 320 non-olfactory GPCRs (Homo sapiens, UniProt Q8IZF2); type: cell-based
Chain of panel of 320 non-olfactory GPCRs (Homo sapiens, UniProt Q8IZF2) (Q8IZF2 22-1346): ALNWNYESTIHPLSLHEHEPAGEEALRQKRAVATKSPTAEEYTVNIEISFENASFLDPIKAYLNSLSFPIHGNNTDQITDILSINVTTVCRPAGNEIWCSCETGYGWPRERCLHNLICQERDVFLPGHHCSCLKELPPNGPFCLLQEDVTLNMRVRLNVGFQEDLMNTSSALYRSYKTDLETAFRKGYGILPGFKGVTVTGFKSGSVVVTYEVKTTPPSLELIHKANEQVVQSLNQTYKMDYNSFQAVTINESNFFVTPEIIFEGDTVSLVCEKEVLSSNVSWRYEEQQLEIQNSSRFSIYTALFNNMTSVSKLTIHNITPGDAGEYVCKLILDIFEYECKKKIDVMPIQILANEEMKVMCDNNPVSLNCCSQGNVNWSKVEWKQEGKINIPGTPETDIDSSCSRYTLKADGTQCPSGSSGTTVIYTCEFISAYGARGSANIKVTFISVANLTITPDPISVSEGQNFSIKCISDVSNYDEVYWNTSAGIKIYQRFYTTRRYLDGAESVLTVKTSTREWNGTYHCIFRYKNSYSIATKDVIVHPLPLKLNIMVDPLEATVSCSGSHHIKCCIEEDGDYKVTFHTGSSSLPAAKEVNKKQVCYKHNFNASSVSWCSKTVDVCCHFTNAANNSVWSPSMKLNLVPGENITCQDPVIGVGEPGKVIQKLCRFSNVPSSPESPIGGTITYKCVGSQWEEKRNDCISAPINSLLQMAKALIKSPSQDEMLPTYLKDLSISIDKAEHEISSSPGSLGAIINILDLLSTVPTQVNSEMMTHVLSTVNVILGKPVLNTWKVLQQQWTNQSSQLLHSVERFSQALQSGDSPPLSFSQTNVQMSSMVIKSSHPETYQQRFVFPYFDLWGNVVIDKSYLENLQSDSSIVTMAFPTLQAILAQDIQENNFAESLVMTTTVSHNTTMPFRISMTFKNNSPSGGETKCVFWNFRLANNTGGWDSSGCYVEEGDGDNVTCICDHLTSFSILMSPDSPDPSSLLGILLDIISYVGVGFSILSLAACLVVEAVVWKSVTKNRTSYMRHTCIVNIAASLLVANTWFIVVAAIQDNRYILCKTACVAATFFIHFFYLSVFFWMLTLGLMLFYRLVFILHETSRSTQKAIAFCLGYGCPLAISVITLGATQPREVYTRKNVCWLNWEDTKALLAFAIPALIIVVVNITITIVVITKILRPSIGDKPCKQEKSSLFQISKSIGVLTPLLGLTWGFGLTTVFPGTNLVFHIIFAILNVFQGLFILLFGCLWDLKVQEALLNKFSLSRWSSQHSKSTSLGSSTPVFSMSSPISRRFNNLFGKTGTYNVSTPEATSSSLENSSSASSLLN

[25] = target: panel of 320 non-olfactory GPCRs (Homo sapiens, UniProt Q8IZP9); type: cell-based
Chain of panel of 320 non-olfactory GPCRs (Homo sapiens, UniProt Q8IZP9) (Q8IZP9 38-1017): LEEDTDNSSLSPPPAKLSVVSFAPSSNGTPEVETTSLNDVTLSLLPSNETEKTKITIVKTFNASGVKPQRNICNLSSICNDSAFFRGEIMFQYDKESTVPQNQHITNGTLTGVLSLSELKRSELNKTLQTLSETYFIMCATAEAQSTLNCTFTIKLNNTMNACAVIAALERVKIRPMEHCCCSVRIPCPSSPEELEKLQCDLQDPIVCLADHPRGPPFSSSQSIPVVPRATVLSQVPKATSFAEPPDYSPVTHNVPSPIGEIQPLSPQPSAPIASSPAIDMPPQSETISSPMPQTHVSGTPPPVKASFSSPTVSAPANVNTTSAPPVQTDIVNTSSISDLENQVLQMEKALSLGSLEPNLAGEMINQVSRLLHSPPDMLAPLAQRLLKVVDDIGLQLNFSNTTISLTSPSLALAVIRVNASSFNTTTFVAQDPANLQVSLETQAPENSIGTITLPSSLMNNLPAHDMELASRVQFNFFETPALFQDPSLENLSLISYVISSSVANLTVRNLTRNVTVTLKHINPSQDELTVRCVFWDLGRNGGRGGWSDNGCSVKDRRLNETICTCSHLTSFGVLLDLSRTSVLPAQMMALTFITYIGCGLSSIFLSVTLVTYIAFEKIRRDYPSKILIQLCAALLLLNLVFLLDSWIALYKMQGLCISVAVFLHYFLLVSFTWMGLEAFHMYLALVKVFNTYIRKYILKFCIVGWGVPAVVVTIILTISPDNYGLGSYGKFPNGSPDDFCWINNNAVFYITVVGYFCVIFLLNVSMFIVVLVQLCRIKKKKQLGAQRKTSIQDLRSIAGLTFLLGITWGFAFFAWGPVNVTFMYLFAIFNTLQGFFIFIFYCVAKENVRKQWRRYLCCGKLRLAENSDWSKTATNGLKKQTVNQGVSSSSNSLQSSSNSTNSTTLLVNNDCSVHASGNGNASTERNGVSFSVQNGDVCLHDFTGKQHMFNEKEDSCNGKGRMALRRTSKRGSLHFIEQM

[26] = target: panel of 320 non-olfactory GPCRs (Homo sapiens, UniProt Q8TDS4); type: cell-based
[27] = target: panel of 320 non-olfactory GPCRs (Homo sapiens, UniProt Q92847); type: cell-based
[28] = target: panel of 320 non-olfactory GPCRs (Homo sapiens, UniProt Q96LB1); type: cell-based
[29] = target: panel of 320 non-olfactory GPCRs (Homo sapiens, UniProt Q96P66); type: cell-based
Chain of panel of 320 non-olfactory GPCRs (Homo sapiens, UniProt Q96P66) (Q96P66 whole entry): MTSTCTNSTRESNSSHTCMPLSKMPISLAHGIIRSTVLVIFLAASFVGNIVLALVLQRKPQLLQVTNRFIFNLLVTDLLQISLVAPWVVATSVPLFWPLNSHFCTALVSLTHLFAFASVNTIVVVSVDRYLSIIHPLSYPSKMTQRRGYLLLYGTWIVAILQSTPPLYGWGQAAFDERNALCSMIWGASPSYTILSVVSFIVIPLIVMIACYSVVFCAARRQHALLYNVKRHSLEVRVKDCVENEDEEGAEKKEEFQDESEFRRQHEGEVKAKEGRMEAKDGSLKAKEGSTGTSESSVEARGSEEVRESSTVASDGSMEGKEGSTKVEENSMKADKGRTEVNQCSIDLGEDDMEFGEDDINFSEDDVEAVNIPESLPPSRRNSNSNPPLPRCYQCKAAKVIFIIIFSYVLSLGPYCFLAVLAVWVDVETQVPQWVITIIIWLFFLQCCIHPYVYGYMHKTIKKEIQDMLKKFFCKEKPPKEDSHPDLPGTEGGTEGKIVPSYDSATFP

[30] = target: panel of 320 non-olfactory GPCRs (Homo sapiens, UniProt Q96RI9); type: cell-based
Chain of panel of 320 non-olfactory GPCRs (Homo sapiens, UniProt Q96RI9) (Q96RI9 whole entry): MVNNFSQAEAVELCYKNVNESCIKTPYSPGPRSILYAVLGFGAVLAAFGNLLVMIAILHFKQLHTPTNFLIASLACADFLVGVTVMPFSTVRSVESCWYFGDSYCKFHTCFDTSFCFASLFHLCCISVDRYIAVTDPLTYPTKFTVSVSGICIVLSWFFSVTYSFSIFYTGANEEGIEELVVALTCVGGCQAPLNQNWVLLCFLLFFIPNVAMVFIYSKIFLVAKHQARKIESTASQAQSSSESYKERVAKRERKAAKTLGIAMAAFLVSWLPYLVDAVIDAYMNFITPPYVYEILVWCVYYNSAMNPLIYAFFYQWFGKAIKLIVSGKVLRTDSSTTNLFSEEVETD

[31] = target: panel of 320 non-olfactory GPCRs (Homo sapiens, UniProt Q99527); type: cell-based
[32] = target: panel of 320 non-olfactory GPCRs (Homo sapiens, UniProt Q9BZJ6); type: cell-based
Chain of panel of 320 non-olfactory GPCRs (Homo sapiens, UniProt Q9BZJ6) (Q9BZJ6 whole entry): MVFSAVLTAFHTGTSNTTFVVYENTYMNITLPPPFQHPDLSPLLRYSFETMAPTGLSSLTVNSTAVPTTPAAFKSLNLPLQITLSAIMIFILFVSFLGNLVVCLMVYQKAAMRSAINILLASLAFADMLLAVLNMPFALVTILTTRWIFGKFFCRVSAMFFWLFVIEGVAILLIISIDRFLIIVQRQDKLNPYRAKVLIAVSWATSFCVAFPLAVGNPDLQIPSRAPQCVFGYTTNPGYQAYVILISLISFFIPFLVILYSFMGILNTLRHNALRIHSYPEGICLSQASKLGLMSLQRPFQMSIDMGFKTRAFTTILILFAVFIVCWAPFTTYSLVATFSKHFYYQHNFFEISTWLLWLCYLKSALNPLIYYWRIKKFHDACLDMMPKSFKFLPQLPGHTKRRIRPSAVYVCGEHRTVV

[33] = target: panel of 320 non-olfactory GPCRs (Homo sapiens, UniProt Q9HC97); type: cell-based
[34] = target: panel of 320 non-olfactory GPCRs (Homo sapiens, UniProt Q9NPC1); type: cell-based
[35] = target: panel of 320 non-olfactory GPCRs (Homo sapiens, UniProt Q9NS66); type: cell-based
[36] = target: panel of 320 non-olfactory GPCRs (Homo sapiens, UniProt Q9NS75); type: cell-based
[37] = system: panel of 320 non-olfactory GPCRs; type: cell-based, human

Q: How did the “Fold of Basal RLU” value [1] turn out when `Cc1cc(C(=O)NC(C)(c2ccco2)c2ccco2)nn1-c1cccc(C(F)(F)F)c1` [‘4936] was run?
A: 1.4 fold and 1.2 fold and 1.7 fold and 2.2 fold

Q: And the “Fold of Basal RLU” value [2]?
A: 2 and 1.6 and 1.3 and 1.1

Q: What about the “Fold of Basal RLU” value [3] of the same molecule?
A: 1.4 fold and 1.1 fold and 1.3 fold and 1.2 fold

Q: And the “Fold of Basal RLU” value [4]?
A: 1 fold and 0.8 fold and 0.9 fold

Q: And the “Fold of Basal RLU” value [5]?
A: 1 fold and 1.1 fold and 0.9 fold and 0.8 fold

Q: What about the “Fold of Basal RLU” value [6] of the same molecule?
A: 0.9 and 0.7 and 1

Q: And the “Fold of Basal RLU” value [7]?
A: 0.9 fold and 0.8 fold and 0.6 fold

Q: What about the “Fold of Basal RLU” value [8] of the same molecule?
A: 1.3 and 1.8 and 1.7 and 2

Q: And the “Fold of Basal RLU” value [9]?
A: 0.8 fold and 1 fold and 1.3 fold

Q: And the “Fold of Basal RLU” value [10]?
A: 1.4 fold and 1.3 fold and 1.5 fold and 2 fold

Q: What about the “Fold of Basal RLU” value [11] of the same molecule?
A: 1.1 fold and 1.3 fold and 0.9 fold and 1.2 fold

Q: What about the “Fold of Basal RLU” value [12] of the same molecule?
A: 1.6 fold and 1.2 fold and 0.9 fold and 1 fold

Q: And the “Fold of Basal RLU” value [13]?
A: 1.9 fold and 1.8 fold and 1.7 fold and 1.6 fold

Q: And the “Fold of Basal RLU” value [14]?
A: 12.4 and 11.8 and 12 and 10.8

Q: And the “Fold of Basal RLU” value [15]?
A: 0.9 and 0.8 and 1

Q: What about the “Fold of Basal RLU” value [16] of the same molecule?
A: 0.9 fold and 1.2 fold and 1 fold

Q: What about the “Fold of Basal RLU” value [17] of the same molecule?
A: 1.3 fold and 1 fold and 1.2 fold and 1.1 fold

Q: And the “Fold of Basal RLU” value [18]?
A: 1 fold and 0.9 fold and 1.4 fold

Q: And the “Fold of Basal RLU” value [19]?
A: 1.2 and 0.8 and 0.7 and 1.1

Q: And the “Fold of Basal RLU” value [20]?
A: 1.1 fold and 1 fold

Q: And the “Fold of Basal RLU” value [21]?
A: 0.9 and 1.2 and 1.1 and 1.7

Q: And the “Fold of Basal RLU” value [22]?
A: 1.4 and 1.2 and 0.9 and 0.7

Q: And the “Fold of Basal RLU” value [23]?
A: 0.8 fold and 0.7 fold and 0.9 fold

Q: What about the “Fold of Basal RLU” value [24] of the same molecule?
A: 2.1 fold and 2.4 fold and 1.6 fold and 2.5 fold

Q: What about the “Fold of Basal RLU” value [25] of the same molecule?
A: 0.8 fold and 0.6 fold and 1 fold

Q: What about the “Fold of Basal RLU” value [26] of the same molecule?
A: 1.2 fold and 1.1 fold and 1 fold

Q: What about the “Fold of Basal RLU” value [27] of the same molecule?
A: 1.3 fold and 2.2 fold and 1.6 fold

Q: And the “Fold of Basal RLU” value [28]?
A: 1.3 fold and 1.2 fold and 1.7 fold and 1.4 fold

Q: What about the “Fold of Basal RLU” value [29] of the same molecule?
A: 1.2 fold and 1.3 fold

Q: What about the “Fold of Basal RLU” value [30] of the same molecule?
A: 0.8 and 1.3 and 1.4

Q: And the “Fold of Basal RLU” value [31]?
A: 1.9 and 1.3 and 1.5 and 1.4

Q: And the “Fold of Basal RLU” value [32]?
A: 1.1 fold and 1.2 fold and 0.8 fold and 0.9 fold

Q: And the “Fold of Basal RLU” value [33]?
A: 1 fold and 1.4 fold and 0.9 fold

Q: What about the “Fold of Basal RLU” value [34] of the same molecule?
A: 0.6 fold and 0.8 fold and 0.7 fold and 0.9 fold

Q: And the “Fold of Basal RLU” value [35]?
A: 1.1 and 1 and 1.7 and 1.3

Q: What about the “Fold of Basal RLU” value [36] of the same molecule?
A: 1.5 and 1.7 and 1.4 and 2.3

Q: And the “agonist activity at GPR55, GPR18, GPR119” value [37]?
A: no agonist activity

Q: What about the off-target functional activity [37] of the same molecule?
A: except for ‘4936 against ADORA-1

Q: With `COC(=O)[C@@](C)(NC(=O)c1cc(C)n(-c2cccc(C(F)(F)F)c2)n1)c1cccs1` [‘1350] as the molecule, how does the “Fold of Basal RLU” value [1] read?
A: 1.1 fold and 1.4 fold and 1.2 fold and 1.6 fold

Q: What about the “Fold of Basal RLU” value [2] of the same molecule?
A: 0.7 and 0.6

Q: And the “Fold of Basal RLU” value [3]?
A: 1.1 fold and 0.9 fold and 1 fold and 0.8 fold

Q: What about the “Fold of Basal RLU” value [4] of the same molecule?
A: 1.1 fold and 1.5 fold and 1 fold and 0.8 fold

Q: What about the “Fold of Basal RLU” value [5] of the same molecule?
A: 0.9 fold and 1.4 fold and 1.1 fold and 1.7 fold

Q: And the “Fold of Basal RLU” value [6]?
A: 1 and 1.5 and 1.9 and 1.1

Q: And the “Fold of Basal RLU” value [7]?
A: 1.1 fold and 0.9 fold and 0.8 fold

Q: What about the “Fold of Basal RLU” value [8] of the same molecule?
A: 1.1 and 1.2 and 1.7

Q: And the “Fold of Basal RLU” value [9]?
A: 0.9 fold and 1.1 fold and 0.7 fold and 1 fold

Q: And the “Fold of Basal RLU” value [10]?
A: 1.3 fold and 1.5 fold and 1.2 fold

Q: And the “Fold of Basal RLU” value [11]?
A: 0.9 fold and 1 fold and 0.8 fold

Q: And the “Fold of Basal RLU” value [12]?
A: 1.5 fold and 1 fold and 1.1 fold

Q: And the “Fold of Basal RLU” value [13]?
A: 1 fold and 1.4 fold and 0.8 fold

Q: What about the “Fold of Basal RLU” value [14] of the same molecule?
A: 8.2 and 8.7 and 8.6

Q: What about the “Fold of Basal RLU” value [15] of the same molecule?
A: 0.9 and 1.4 and 1

Q: And the “Fold of Basal RLU” value [16]?
A: 0.9 fold and 1 fold and 1.2 fold and 1.3 fold

Q: And the “Fold of Basal RLU” value [17]?
A: 1.1 fold and 0.8 fold and 1 fold

Q: What about the “Fold of Basal RLU” value [18] of the same molecule?
A: 0.9 fold and 1 fold and 1.2 fold

Q: What about the “Fold of Basal RLU” value [19] of the same molecule?
A: 0.7 and 0.6 and 1

Q: And the “Fold of Basal RLU” value [20]?
A: 1.2 fold and 1 fold

Q: What about the “Fold of Basal RLU” value [21] of the same molecule?
A: 0.8 and 1 and 0.6

Q: And the “Fold of Basal RLU” value [22]?
A: 1.2 and 1.1 and 1 and 1.6

Q: And the “Fold of Basal RLU” value [23]?
A: 0.9 fold and 1.1 fold and 1.3 fold

Q: What about the “Fold of Basal RLU” value [24] of the same molecule?
A: 1.1 fold and 1.3 fold

Q: What about the “Fold of Basal RLU” value [25] of the same molecule?
A: 1.1 fold and 1.2 fold and 0.9 fold and 0.7 fold

Q: What about the “Fold of Basal RLU” value [26] of the same molecule?
A: 1 fold and 0.8 fold

Q: What about the “Fold of Basal RLU” value [27] of the same molecule?
A: 1.4 fold and 1.8 fold and 1.6 fold

Q: And the “Fold of Basal RLU” value [28]?
A: 1.7 fold and 1.5 fold and 1 fold and 1.1 fold

Q: What about the “Fold of Basal RLU” value [29] of the same molecule?
A: 1.1 fold and 0.8 fold and 0.9 fold

Q: What about the “Fold of Basal RLU” value [30] of the same molecule?
A: 1.2 and 1.1 and 1.5

Q: What about the “Fold of Basal RLU” value [31] of the same molecule?
A: 1.2 and 1.1 and 0.9

Q: What about the “Fold of Basal RLU” value [32] of the same molecule?
A: 1.1 fold and 1 fold and 0.8 fold

Q: And the “Fold of Basal RLU” value [33]?
A: 1 fold and 0.9 fold and 1.1 fold

Q: What about the “Fold of Basal RLU” value [34] of the same molecule?
A: 0.8 fold and 1 fold and 0.6 fold and 0.7 fold

Q: What about the “Fold of Basal RLU” value [35] of the same molecule?
A: 1.6 and 1.3 and 1.7

Q: And the “Fold of Basal RLU” value [36]?
A: 1.3 and 1.4 and 1.8

Q: And the “agonist activity at GPR55, GPR18, GPR119” value [37]?
A: no agonist activity

Q: What about the off-target functional activity [37] of the same molecule?
A: little activity was seen
